Data published in patent EP2716638A1, “Labeled ligands of the oxytocyn receptor” (Université de Strasbourg, priority 2012, dated 2014).

Key:
[1] = tested on: cAMP accumulation; assay: cAMP accumulation functional assay (agonist and antagonist mode); type: cell-based
[2] = target: T1, V1aR (Homo sapiens, UniProt P37288); assay: TR-FRET (HTRF) saturation binding assay on SNAP-tag labeled receptor in cells; settings: saturation with fluorescent ligand; mean ± SEM of three independent experiments in triplicate; read-out: Binding, HTRF (Kd, nM) V1a
T1 construct: expressed in transfected cells; host or cells: HEK 293T (printed for the general protocol, whose plasmid sentence names only the V2 receptor)
Protocol: (§1) These assays were performed as described in Zwier et al (Journal of Biomolecular Screening 2010, 15, 1248-1259). Briefly, HEK 293T cells were cultivated in DMEM medium supplemented with 10% foetal calf serum (FCS) and 1% penicillin/streptomycin antibiotics. Confluent cells were dissociated and electroporated with plasmid DNA coding for the V2 receptor fused to the SNAP-tag suicide enzyme. Transfected cells were then plated in black 96-well plates previously coated with poly-ornithine (diluted at 0.1 mg.mL^-1 in sterile water, incubated 30 min at 37°C, washed with sterile PBS). Plates were incubated in supplemented DMEM medium for 48h à 37°C, […] and 5% CO2. Expressed receptors fused to SNAPtag were then labeled with fluorescent substrates, either with a donor (SNAP-Lumi4-Tb) or an acceptor (SNAP-RED) at respectively 100 or 300 nM in 100 µL of Tag-lite® labeling medium, for 1 h at 37 °C. Cells were then washed 3 times in Tag-lite medium and then incubated with the fluorescent ligands. For saturation assays, increasing concentrations of fluorescent ligands were diluted in 100 µL of Tag-lite medium. For competition assays, a fixed concentration of fluorescent ligand (typically 20 nM) was mixed with an increasing concentration of cold competitor ligand (in this case AVP) in Tag-lite medium. After overnight incubation at 4 °C (to prevent any internalization phenomenon), plates were read in an HTRF®-compatible multi-well plate reader with a classic HTRF® protocol (excitation at 340 nm, donor emission measured at 620 nm and acceptor emission at 665 nm, 50 µs delay, 500 µs integration).
(§2) Fluorescent compounds 21 to 24 were involved in the development of a TR-FRET based assay for both V1aR and OTR. Such technique usually offers a higher signal-to-noise ratio than classic FRET because of the long-lasting fluorescence of the lanthanide cryptate. TR-FRET based saturation experiments with fluorescent compounds 21 to 24 were performed on V1a, OT and V2 receptors labeled with the SNAP-tag® approach: cells expressing a receptor of interest fused to SNAP-tag are incubated in the presence of a fluorescent substrate to label the receptor. Cells were then incubated in the presence of increasing concentrations of a fluorescent ligand. Fluorophores of the SNAP-tag substrates and of the ligands are chosen to be compatible with time-resolved FRET. SNAP-tagged receptors were labeled either with a Lumi4-Tb donor (SNAP-Lumi4-Tb) or d2 acceptor (SNAP-red) depending on the nature of the ligands, either acceptor (21, 22) or donor (23, 24). Saturation curves were obtained when plotting specific FRET signal as a function of fluorescent compounds concentration; non-specific binding was determined in the presence of an excess of the unlabeled corresponding ligands (10 µM) (Figure 1).

[3] = target: T2, OTR (Homo sapiens, UniProt P30559); assay: as above; settings: saturation with fluorescent ligand; mean ± SEM of three independent experiments in triplicate; read-out: Binding, HTRF (Kd, nM) OT
T2 construct: expressed in transfected cells; host or cells: HEK 293T (printed for the general protocol, whose plasmid sentence names only the V2 receptor)
T2 sequence (P30559 1-389): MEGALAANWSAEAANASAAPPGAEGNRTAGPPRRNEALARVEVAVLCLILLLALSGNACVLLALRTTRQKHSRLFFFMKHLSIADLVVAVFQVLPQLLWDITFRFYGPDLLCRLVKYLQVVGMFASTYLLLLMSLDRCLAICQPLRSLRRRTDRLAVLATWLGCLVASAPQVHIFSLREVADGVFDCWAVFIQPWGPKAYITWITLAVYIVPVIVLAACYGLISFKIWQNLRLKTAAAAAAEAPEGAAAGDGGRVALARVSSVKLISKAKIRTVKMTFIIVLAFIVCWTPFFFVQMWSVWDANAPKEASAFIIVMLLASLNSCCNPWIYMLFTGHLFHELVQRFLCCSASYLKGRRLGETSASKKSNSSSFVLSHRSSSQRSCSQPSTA
Protocol: as §1, §2

[4] = target: T3, V2 receptor (Homo sapiens, UniProt P30518); assay: as above; settings: saturation with fluorescent ligand; mean ± SEM of three independent experiments in triplicate
T3 construct: expressed in transfected cells; host or cells: HEK 293T
Protocol: as §1, §2

[5] = tested on: cAMP accumulation; assay: cAMP accumulation functional assay (agonist and antagonist mode); type: cell-based; remark: listed apart in the source
[6] = cell incubation with fluorescent compound at a concentration of 100-fold Ki

T1 sequence (P37288 whole entry): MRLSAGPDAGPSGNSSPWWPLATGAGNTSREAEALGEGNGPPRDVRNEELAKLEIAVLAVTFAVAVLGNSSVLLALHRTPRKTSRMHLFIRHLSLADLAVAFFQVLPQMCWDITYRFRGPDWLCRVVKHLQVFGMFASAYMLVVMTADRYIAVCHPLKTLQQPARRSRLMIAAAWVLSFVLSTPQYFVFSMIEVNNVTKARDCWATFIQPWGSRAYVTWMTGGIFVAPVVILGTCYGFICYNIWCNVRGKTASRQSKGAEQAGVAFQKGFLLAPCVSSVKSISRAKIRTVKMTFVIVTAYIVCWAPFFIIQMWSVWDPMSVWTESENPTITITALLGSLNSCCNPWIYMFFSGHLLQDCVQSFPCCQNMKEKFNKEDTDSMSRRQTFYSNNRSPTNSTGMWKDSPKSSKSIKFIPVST
T3 sequence (P30518 whole entry): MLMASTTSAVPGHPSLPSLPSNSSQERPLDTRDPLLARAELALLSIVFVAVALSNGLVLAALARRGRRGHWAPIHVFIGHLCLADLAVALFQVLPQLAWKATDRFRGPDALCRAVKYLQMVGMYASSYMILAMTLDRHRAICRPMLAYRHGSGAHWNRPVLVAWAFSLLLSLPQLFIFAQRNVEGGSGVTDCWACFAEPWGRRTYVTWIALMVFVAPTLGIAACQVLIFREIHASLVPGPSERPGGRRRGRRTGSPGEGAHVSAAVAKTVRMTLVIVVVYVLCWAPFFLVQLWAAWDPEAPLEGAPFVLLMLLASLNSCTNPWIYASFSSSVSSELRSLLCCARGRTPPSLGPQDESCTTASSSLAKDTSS

Row | Molecule | cyclic adenosine monophosphate (cAMP) accumulation (intrinsic agonist activity) [1, 6] | inhibition of AVP-induced cAMP accumulation ([1]; dose-dependent, antagonist mode) | Kd [2] | Kd [3] | Kd [4] | EC50 ([5]; cAMP accumulation, agonist potency, read-out: Kact) | cyclic adenosine monophosphate (cAMP) accumulation (intrinsic agonist activity) [5, 6]
1 | CCN1C(=CC=CC=CC2=[N+](CC)c3ccc(S(=O)(=O)[O-])cc3C2(C)C)C(C)(CCCC(=O)NCCOCCN2CCN(CCCCCCOc3cccc(C)c3-n3c(C)nnc3-c3ccc(-c4ccccc4)cc3)CC2)c2cc(S(=O)(=O)O)ccc21 (stereo not shown) [Compound 21] | No significant increase in accumulation of second messengers | fully inhibited | 6 ± 2 nM | 7 ± 2 nM | > 1000 nM |  | 
2 | CCN1C(=CC=CC=CC2=[N+](CC)c3ccc(S(=O)(=O)[O-])cc3C2(C)C)C(C)(CCCC(=O)NCCOCCOCCOCCN2CCN(CCCCCCOc3cccc(C)c3-n3c(C)nnc3-c3ccc(-c4ccccc4)cc3)CC2)c2cc(S(=O)(=O)O)ccc21 (stereo not shown) [Compound 22] |  |  | 10 ± 2 nM | 11 ± 2 nM | > 1000 nM |  | 
3 | arginine vasopressin [AVP] |  |  |  |  |  | 0.29 nM | full agonist properties
